This assay deals with T1, Human TRPC6 (Homo sapiens, UniProt Q9Y210).
T1 construct: expressed in transfected cells
T1 sequence (Q9Y210 1-931): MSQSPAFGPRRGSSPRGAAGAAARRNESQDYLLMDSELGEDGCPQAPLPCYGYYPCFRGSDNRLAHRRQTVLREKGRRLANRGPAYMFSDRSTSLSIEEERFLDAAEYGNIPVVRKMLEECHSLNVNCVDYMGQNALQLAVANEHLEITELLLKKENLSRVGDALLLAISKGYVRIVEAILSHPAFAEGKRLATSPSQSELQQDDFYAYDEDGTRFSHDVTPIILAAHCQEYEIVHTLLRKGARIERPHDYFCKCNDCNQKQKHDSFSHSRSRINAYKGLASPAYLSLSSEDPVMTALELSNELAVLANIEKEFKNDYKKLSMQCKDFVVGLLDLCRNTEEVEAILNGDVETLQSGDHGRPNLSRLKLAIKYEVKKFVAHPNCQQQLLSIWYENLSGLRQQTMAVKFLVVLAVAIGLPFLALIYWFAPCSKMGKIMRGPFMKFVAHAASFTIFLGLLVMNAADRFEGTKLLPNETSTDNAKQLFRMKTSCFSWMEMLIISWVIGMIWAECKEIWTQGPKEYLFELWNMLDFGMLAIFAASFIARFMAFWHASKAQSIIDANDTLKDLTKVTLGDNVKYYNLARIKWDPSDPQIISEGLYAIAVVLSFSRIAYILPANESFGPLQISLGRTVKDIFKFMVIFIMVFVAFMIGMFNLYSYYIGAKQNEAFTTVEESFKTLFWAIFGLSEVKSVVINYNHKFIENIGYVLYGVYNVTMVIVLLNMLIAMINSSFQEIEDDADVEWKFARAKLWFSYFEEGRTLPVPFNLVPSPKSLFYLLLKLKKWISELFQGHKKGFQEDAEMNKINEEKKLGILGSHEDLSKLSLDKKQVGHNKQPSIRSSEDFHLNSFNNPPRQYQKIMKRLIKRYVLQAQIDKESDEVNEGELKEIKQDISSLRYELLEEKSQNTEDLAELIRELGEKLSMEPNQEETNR
The assay can be described thus: Evaluation of TRPC6 channel inhibitory activity (1), FLIPR Calcium 5 Assay Kit, OAG stimulation (Compound Nos. 1-1293). In kind it is cell-based. The note with it: Human TRPC6 stably-expressing cells, OAG 30 μM, FLIPR Calcium 5 Assay Kit; read-out: Inhibitory activity (pIC50 class) (converted). Summed up: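 Cells stably expressing human TRPC6, plated 24 h before, were loaded 30 min with Calcium 5 dye plus probenecid in HEPES-HBSS. Compound was added 20 min before OAG (30 μM final) and fluorescence tracked on FLIPR. Inhibition normalised to no-compound and no-compound/no-OAG wells; pIC50 from four-parameter fit, reported as +/++/+++ categories.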

Some results are limits rather than exact numbers.

Consider `Cn1nc(-c2ccc(F)cc2)cc1Oc1cc(C#N)ccc1-c1ccc(CCN)nc1` [Compound 184, 4-[6-(2-aminoethyl)pyridin-3-yl]-3-[5-(4-fluorophenyl)-2-methylpyrazol-3-yl]oxybenzonitrile], for which the IC50 is 10 to 1000 nM. The same measure for `Cn1nc(-c2ccc(F)cc2)cc1Oc1cc(C#N)ccc1-c1ccc(CCN)cn1` [Compound 185, 4-[5-(2-aminoethyl)pyridin-2-yl]-3-[5-(4-fluorophenyl)-2-methylpyrazol-3-yl]oxybenzonitrile]: less than 10 nM; for `Cn1nc(-c2cccc(F)c2)cc1Oc1cc(C#N)ccc1-c1ccc(CCN)cc1` [Compound 186, 4-[4-(2-aminoethyl)phenyl]-3-[5-(3-fluorophenyl)-2-methylpyrazol-3-yl]oxybenzonitrile]: less than 10 nM; for `Cn1nc(-c2cccc(F)c2)cc1Oc1cc(C#N)ccc1-c1ccc(CCN)nc1` [Compound 187, 4-[6-(2-aminoethyl)pyridin-3-yl]-3-[5-(3-fluorophenyl)-2-methylpyrazol-3-yl]oxybenzonitrile]: less than 10 nM. As to `Cc1nc(Oc2cc(C#N)ccc2-c2ccc(CCN)nc2)cc(-c2cccnc2)n1` [Compound 188, 4-[6-(2-aminoethyl)pyridin-3-yl]-3-(2-methyl-6-pyridin-3-ylpyrimidin-4-yl)oxybenzonitrile], the IC50 was greater than 1000 nM.

Regarding `Cc1ccc(-c2cc(Oc3cc(C#N)ccc3-c3ccc(CCN)nc3)nc(C)n2)nc1` [Compound 189, 4-[6-(2-aminoethyl)pyridin-3-yl]-3-[2-methyl-6-(5-methylpyridin-2-yl)pyrimidin-4-yl]oxybenzonitrile], the IC50 was greater than 1000 nM. `Cc1nc(Oc2cc(C#N)ccc2-c2ccc(CCN)nc2)cc(-c2ccc(F)cc2)n1` [Compound 190, 4-[6-(2-aminoethyl)pyridin-3-yl]-3-[6-(4-fluorophenyl)-2-methylpyrimidin-4-yl]oxybenzonitrile]: the IC50 was 10 to 1000 nM.

Regarding `Cc1nc(Oc2cc(C#N)ccc2-c2ccc3c(c2)C(O)C(N)CC3)cc(-c2ccccc2)n1` (stereo not drawn) [Compound 191, 4-(7-amino-8-hydroxy-5,6,7,8-tetrahydronaphthalen-2-yl)-3-(2-methyl-6-phenylpyrimidin-4-yl)oxybenzonitrile], the IC50 is greater than 1000 nM. For `Cc1nc(Oc2cc(C#N)ccc2-n2ncc3c2CCC(N)C3O)cc(-c2ccccc2)n1` (stereo not drawn) [Compound 192, 4-(5-amino-4-hydroxy-4,5,6,7-tetrahydroindazol-1-yl)-3-(2-methyl-6-phenylpyrimidin-4-yl)oxybenzonitrile], the IC50 was 10 to 1000 nM. As for `Cc1nc(Oc2cc(C#N)ccc2-n2cc3c(n2)CCC(N)C3O)cc(-c2ccccc2)n1` (stereo not drawn) [Compound 193, 4-(5-amino-4-hydroxy-4,5,6,7-tetrahydroindazol-2-yl)-3-(2-methyl-6-phenylpyrimidin-4-yl)oxybenzonitrile], the IC50 was greater than 1000 nM.

On to `Cc1nc(Oc2cc(C#N)ccc2-c2cccc(CCN)c2)cc(N2CCOCC2)n1` [Compound 194, 4-[3-(2-aminoethyl)phenyl]-3-(2-methyl-6-morpholin-4-ylpyrimidin-4-yl)oxybenzonitrile], for which the IC50 is greater than 1000 nM. As for `Cc1nc(Oc2cc(C#N)ccc2-c2csc(C(O)CN)n2)cc(-c2ccccc2)n1` (stereo not drawn) [Compound 195, 4-[2-(2-amino-1-hydroxyethyl)-1,3-thiazol-4-yl]-3-(2-methyl-6-phenylpyrimidin-4-yl)oxybenzonitrile], the IC50 is 10 to 1000 nM. Turning to `N#Cc1ccc(-n2ccc(C(O)CN)n2)c(Oc2cnnc(-c3ccc[nH]3)c2)c1` (stereo not drawn) [Compound 196, 4-[3-(2-amino-1-hydroxyethyl)pyrazol-1-yl]-3-[6-(1H-pyrrol-2-yl)pyridazin-4-yl]oxybenzonitrile], the IC50 was 10 to 1000 nM. Regarding `Cc1cc(Oc2cc(C#N)ccc2-c2ccc(C(O)CN)cc2)cc(N2CCOCC2)n1` (stereo not drawn) [Compound 197, 4-[4-(2-amino-1-hydroxyethyl)phenyl]-3-(2-methyl-6-morpholin-4-ylpyridin-4-yl)oxybenzonitrile], the IC50 is less than 10 nM.

Consider `Cn1nc(-c2cccc(F)c2)cc1Oc1cc(C#N)ccc1-c1ccc(C(O)CN)cc1` (stereo not drawn) [Compound 198, 4-[4-(2-amino-1-hydroxyethyl)phenyl]-3-[5-(3-fluorophenyl)-2-methylpyrazol-3-yl]oxybenzonitrile], for which the IC50 is less than 10 nM.

Regarding `Cn1nc(-c2cccc(F)c2)cc1Oc1cc(C#N)ccc1-c1ccc(CCN)cn1` [Compound 199, 4-[5-(2-aminoethyl)pyridin-2-yl]-3-[5-(3-fluorophenyl)-2-methylpyrazol-3-yl]oxybenzonitrile], the IC50 was less than 10 nM. Take `Cc1nc(Oc2cc(C#N)ccc2-n2cnc(C(O)CN)c2)cc(-c2ccccc2)n1` (stereo not drawn) [Compound 200, 4-[4-(2-amino-1-hydroxyethyl)imidazol-1-yl]-3-(2-methyl-6-phenylpyrimidin-4-yl)oxybenzonitrile]: the IC50 is greater than 1000 nM. Turning to `Cc1cc(Oc2cc(C#N)ccc2-c2ccc(C(=O)CN)cc2)cc(-c2ccccc2)n1` [Compound 201, 4-[4-(2-aminoacetyl)phenyl]-3-(2-methyl-6-phenylpyridin-4-yl)oxybenzonitrile], the IC50 is greater than 1000 nM. With `Cn1nc(C2CC2)cc1Oc1cc(C#N)ccc1-c1ccc(CCN)cn1` [Compound 202, 4-[5-(2-aminoethyl)pyridin-2-yl]-3-(5-cyclopropyl-2-methylpyrazol-3-yl)oxybenzonitrile], the IC50 is less than 10 nM.

Consider `Cc1cc(Oc2cc(C#N)ccc2-n2ccc(C(O)CN)n2)cc(-c2ccccc2)n1` (stereo not drawn) [Compound 203, 4-[3-(2-amino-1-hydroxyethyl)pyrazol-1-yl]-3-(2-methyl-6-phenylpyridin-4-yl)oxybenzonitrile], for which the IC50 is 10 to 1000 nM.

Regarding `Cn1nc(-c2ccccc2)cc1Oc1cc(C#N)ccc1-n1cc(C(O)CN)cn1` (stereo not drawn) [Compound 204, 4-[4-(2-amino-1-hydroxyethyl)pyrazol-1-yl]-3-(2-methyl-5-phenylpyrazol-3-yl)oxybenzonitrile], the IC50 was less than 10 nM.

Consider `Cc1cccc(-c2cc(Oc3cc(C#N)ccc3-n3cc([C@@H](O)CN)cn3)nc(C)n2)c1` [Compound 205, 4-[4-[(1R)-2-amino-1-hydroxyethyl]pyrazol-1-yl]-3-[2-methyl-6-(3-methylphenyl)pyrimidin-4-yl]oxybenzonitrile], for which the IC50 is less than 10 nM.

For `Cc1cccc(-c2cc(Oc3cc(C#N)ccc3-n3cc([C@H](O)CN)cn3)nc(C)n2)c1` [Compound 206, 4-[4-[(1S)-2-amino-1-hydroxyethyl]pyrazol-1-yl]-3-[2-methyl-6-(3-methylphenyl)pyrimidin-4-yl]oxybenzonitrile], the IC50 was less than 10 nM. For the compound `Cn1nc(-c2ccccc2)cc1Oc1cc(C#N)ccc1-c1ccc(CCNC2COC2)cn1` [Compound 207, 3-(2-methyl-5-phenylpyrazol-3-yl)oxy-4-[5-[2-(oxetan-3 ylamino)ethyl]pyridin-2-yl]benzonitrile], the IC50 was 10 to 1000 nM. On to `Cc1nc(Oc2cc(C#N)ccc2-n2cc(N3CCNCC3=O)cn2)cc(C2CCCC2)n1` [Compound 208, 3-(6-Cyclopentyl-2-methylpyrimidin-4-yl)oxy-4-[4-(2-oxopiperazin-1-yl)pyrazol-1-yl]benzonitrile], for which the IC50 is greater than 1000 nM. Regarding `Cc1nc(Oc2cc(C#N)ccc2-n2cc(N3CCCNCC3=O)cn2)cc(C2CCCC2)n1` [Compound 209, 3-(6-cyclopentyl-2-methylpyrimidin-4-yl)oxy-4-[4-(2-oxo-1,4-diazepan-1-yl)pyrazol-1-yl]benzonitrile], the IC50 is greater than 1000 nM.

Consider `Cc1nc(Oc2cc(C#N)ccc2-n2cc(N3CCNCCC3=O)cn2)cc(C2CCCC2)n1` [Compound 210, 3-(6-cyclopentyl-2-methylpyrimidin-4-yl)oxy-4-[4-(7-oxo-1,4-diazepan-1-yl)pyrazol-1-yl]benzonitrile], for which the IC50 was greater than 1000 nM. Then `CC(C)Cc1cc(Oc2cc(C#N)ccc2-c2ccc(CCN)cc2)n(C)n1` [Compound 211, 4-[4-(2-aminoethyl)phenyl]-3-[2-methyl-5-(2-methylpropyl)pyrazol-3-yl]oxybenzonitrile], with less than 10 nM.

On to `CC(C)Cc1cc(Oc2cc(C#N)ccc2-c2ccc(C(O)CN)cc2)n(C)n1` (stereo not drawn) [Compound 212, 4-[4-(2-amino-1-hydroxyethyl)phenyl]-3-[2-methyl-5 (2-methylpropyl)pyrazol-3-yl]oxybenzonitrile], for which the IC50 is less than 10 nM. On to `Cn1nc(C2CC2)cc1Oc1cc(C#N)ccc1-c1ccc(CCN)cc1` [Compound 213, 4-[4-(2-aminoethyl)phenyl]-3-(5-cyclopropyl-2-methylpyrazol-3-yl)oxybenzonitrile], for which the IC50 was less than 10 nM.

Source of the values: US20230167073A1 (Teijin Pharma Limited, priority 2020, published 2023).
